Inhibition data for 10 molecules are collected here from paper PMC9927415, “Tyrosine Kinase Inhibitors Display Potent Activity against Cryptosporidium parvum” (Microbiology Spectrum, 2022).

Read-outs that look alike come from different tables or passages of the source. A value given as a limit tells only on which side of the number the result lay.

Holding throughout (experiment): KINOMEscan competitive binding
Assay [1] has as its target T1, BIKE (Homo sapiens, UniProt Q9NSY1).
T1 construct: purchased DiscoverX (KINOMEscan)
An excerpt: (§1) The kinases were expressed as fusions to T7 bacteriophage. This is a sensitive, competitive binding assay where test compounds were used to displace immobilized ATP-site binding probe ligands from kinases of interest. The amount of kinase that remained bound to the immobilized probe ligands on the solid support was quantified. Percentage inhibition data were was plotted on kinome trees using the web-based tool KinMap (http://www.kinhub.org/kinmap) ([60]).

Assay [2] addresses T2, CLK2 (Homo sapiens, UniProt P49760).
T2 construct: purchased DiscoverX (KINOMEscan)
Description: as §1

The target of assay [3] is T3, CSNK1D (Homo sapiens, UniProt P48730).
T3 construct: purchased DiscoverX (KINOMEscan)
T3 sequence (P48730 whole entry): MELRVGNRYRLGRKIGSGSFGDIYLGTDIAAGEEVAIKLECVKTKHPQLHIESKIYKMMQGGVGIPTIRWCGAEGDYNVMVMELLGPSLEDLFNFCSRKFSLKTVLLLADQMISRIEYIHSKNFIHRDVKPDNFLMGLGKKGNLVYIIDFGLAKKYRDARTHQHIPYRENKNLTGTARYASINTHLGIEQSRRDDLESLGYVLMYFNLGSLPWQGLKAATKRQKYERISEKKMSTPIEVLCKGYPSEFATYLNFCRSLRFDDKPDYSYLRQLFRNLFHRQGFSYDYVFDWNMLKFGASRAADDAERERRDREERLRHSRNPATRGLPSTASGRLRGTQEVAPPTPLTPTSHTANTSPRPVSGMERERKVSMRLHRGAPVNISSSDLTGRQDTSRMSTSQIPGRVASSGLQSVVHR
Description: as §1

Assay [4] has as its target T4, PDGFRβ (Homo sapiens, UniProt P09619).
T4 construct: purchased DiscoverX (KINOMEscan)
Description: as §1

Assay [5] has as its target T5, PRKD2 (Homo sapiens, UniProt Q9BZL6).
T5 construct: purchased DiscoverX (KINOMEscan)
T5 sequence (Q9BZL6 1-878): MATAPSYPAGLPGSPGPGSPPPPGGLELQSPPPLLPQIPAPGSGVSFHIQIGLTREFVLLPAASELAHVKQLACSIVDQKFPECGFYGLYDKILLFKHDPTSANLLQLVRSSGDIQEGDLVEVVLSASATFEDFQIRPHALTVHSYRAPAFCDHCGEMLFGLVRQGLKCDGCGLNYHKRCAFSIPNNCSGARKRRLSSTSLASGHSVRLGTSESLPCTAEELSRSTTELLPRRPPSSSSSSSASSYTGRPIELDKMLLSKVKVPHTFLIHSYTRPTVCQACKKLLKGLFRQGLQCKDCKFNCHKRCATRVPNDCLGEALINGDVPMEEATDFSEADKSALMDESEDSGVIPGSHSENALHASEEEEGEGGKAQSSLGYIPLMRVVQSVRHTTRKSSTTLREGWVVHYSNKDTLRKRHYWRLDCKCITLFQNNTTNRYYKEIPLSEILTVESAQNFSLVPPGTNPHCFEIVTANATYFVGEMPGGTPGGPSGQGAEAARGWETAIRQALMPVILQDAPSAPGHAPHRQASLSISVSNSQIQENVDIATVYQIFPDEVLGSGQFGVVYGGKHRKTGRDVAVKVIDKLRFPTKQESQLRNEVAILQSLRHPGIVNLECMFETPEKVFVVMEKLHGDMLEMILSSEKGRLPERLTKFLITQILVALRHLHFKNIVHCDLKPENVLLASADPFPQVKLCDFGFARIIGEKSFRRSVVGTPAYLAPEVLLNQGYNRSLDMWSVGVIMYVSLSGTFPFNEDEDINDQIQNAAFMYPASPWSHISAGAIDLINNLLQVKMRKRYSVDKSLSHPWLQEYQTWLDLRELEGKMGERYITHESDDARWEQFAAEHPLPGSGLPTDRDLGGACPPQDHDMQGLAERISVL
To be noted: n=1, read-out: Percent inhibition, PRKD2.

The target in assay [6] is T6, TLK2 (Homo sapiens, UniProt Q86UE8).
T6 construct: purchased DiscoverX (KINOMEscan)
T6 sequence (Q86UE8 whole entry): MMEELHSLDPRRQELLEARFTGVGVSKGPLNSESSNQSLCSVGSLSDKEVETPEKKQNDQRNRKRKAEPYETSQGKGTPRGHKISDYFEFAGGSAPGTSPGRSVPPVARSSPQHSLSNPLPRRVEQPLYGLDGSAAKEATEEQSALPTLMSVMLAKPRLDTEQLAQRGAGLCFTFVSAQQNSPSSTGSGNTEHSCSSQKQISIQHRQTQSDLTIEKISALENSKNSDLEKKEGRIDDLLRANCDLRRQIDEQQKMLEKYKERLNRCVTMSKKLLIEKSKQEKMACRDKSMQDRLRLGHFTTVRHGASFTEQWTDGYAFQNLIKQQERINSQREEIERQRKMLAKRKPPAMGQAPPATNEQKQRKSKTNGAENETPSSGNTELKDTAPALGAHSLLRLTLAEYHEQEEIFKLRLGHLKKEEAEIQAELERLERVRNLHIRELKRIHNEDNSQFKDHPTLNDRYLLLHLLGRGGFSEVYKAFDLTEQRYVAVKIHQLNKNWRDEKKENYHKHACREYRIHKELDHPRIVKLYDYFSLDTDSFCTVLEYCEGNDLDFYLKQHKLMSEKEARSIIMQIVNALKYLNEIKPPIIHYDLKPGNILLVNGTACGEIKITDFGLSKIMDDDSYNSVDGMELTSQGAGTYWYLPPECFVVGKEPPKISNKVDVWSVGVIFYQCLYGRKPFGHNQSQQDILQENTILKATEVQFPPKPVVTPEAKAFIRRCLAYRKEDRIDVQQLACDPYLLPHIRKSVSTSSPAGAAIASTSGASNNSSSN
The conditions noted are these: n=1, read-out: Percent inhibition, TLK2.

In assay [7] the target is T7, TNIK (Homo sapiens, UniProt Q9UKE5).
T7 construct: purchased DiscoverX (KINOMEscan)
The conditions noted are these: n=1, read-out: Percent inhibition, TNIK.

Assay [8] concerns the target T8, TNK2 (Homo sapiens, UniProt Q07912).
T8 construct: purchased DiscoverX (KINOMEscan)
The conditions noted are these: n=1, read-out: Percent inhibition, TNK2.

Assay [9] has as its target T9, YES (Homo sapiens, UniProt P07947).
T9 construct: purchased DiscoverX (KINOMEscan)
The conditions noted are these: n=1, read-out: Percent inhibition, YES.

For assay [10], the target named is T10, ZAP70 (Homo sapiens, UniProt P43403).
T10 construct: purchased DiscoverX (KINOMEscan)
T10 sequence (P43403 1-619): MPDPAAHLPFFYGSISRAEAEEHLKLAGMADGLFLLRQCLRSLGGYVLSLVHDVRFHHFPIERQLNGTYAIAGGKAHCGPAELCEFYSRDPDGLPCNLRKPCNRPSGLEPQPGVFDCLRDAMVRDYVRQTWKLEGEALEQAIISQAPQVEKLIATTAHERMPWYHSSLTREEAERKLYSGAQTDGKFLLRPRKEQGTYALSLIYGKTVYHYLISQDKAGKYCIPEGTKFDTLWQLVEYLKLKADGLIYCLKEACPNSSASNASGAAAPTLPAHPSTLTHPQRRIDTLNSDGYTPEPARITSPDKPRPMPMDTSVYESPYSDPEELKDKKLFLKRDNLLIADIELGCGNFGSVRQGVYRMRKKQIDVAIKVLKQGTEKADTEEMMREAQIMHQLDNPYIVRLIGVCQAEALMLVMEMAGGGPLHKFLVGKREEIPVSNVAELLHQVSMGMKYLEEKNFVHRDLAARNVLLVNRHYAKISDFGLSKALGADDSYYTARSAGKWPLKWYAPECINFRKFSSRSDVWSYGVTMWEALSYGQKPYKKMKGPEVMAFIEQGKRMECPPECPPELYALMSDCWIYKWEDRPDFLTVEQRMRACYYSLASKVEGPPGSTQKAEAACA
To be noted: n=1, read-out: Percent inhibition, ZAP70.

[11] abbreviates: 10 µM, n=1, kinase BIKE, read-out: Percent inhibition BIKE.
Setting [12] is: 10 µM, n=1, kinase CLK2, read-out: Percent inhibition CLK2.
[13] abbreviates: 10 µM, n=1, kinase CSNK1D, read-out: Percent inhibition CSNK1D.
The mark [14] stands for this setting: KINOMEscan, 10 µM, n=1, read-out: Percent inhibition, PDGFRB.

T4 sequence (P09619 33-1106): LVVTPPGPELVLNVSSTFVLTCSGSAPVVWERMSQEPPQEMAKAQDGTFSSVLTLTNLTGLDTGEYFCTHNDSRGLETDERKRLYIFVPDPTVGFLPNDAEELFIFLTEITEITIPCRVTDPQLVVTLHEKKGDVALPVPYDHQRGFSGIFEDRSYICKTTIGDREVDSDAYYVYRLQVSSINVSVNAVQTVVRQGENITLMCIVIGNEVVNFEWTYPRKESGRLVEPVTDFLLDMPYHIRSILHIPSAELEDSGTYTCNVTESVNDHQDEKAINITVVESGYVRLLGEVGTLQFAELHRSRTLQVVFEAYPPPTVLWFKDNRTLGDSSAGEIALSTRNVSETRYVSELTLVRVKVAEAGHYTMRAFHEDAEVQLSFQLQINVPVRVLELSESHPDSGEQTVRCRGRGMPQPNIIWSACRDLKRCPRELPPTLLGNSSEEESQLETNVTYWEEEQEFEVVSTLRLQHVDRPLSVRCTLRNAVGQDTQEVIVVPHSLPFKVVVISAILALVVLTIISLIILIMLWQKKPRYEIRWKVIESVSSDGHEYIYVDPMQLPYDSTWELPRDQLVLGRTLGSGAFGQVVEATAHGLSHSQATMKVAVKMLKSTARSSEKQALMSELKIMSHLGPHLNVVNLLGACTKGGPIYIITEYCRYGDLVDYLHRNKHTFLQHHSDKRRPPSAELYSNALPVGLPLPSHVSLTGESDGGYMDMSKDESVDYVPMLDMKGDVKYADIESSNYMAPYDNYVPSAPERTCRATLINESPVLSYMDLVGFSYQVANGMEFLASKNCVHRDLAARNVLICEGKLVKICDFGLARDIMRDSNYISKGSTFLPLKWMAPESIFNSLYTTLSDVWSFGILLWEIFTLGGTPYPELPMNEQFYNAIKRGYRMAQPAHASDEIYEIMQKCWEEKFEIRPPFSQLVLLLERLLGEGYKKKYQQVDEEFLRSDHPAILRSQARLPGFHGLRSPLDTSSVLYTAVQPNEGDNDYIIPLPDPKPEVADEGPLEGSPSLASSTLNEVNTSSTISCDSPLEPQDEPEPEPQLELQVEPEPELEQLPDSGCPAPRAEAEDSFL
T1 sequence (Q9NSY1 whole entry): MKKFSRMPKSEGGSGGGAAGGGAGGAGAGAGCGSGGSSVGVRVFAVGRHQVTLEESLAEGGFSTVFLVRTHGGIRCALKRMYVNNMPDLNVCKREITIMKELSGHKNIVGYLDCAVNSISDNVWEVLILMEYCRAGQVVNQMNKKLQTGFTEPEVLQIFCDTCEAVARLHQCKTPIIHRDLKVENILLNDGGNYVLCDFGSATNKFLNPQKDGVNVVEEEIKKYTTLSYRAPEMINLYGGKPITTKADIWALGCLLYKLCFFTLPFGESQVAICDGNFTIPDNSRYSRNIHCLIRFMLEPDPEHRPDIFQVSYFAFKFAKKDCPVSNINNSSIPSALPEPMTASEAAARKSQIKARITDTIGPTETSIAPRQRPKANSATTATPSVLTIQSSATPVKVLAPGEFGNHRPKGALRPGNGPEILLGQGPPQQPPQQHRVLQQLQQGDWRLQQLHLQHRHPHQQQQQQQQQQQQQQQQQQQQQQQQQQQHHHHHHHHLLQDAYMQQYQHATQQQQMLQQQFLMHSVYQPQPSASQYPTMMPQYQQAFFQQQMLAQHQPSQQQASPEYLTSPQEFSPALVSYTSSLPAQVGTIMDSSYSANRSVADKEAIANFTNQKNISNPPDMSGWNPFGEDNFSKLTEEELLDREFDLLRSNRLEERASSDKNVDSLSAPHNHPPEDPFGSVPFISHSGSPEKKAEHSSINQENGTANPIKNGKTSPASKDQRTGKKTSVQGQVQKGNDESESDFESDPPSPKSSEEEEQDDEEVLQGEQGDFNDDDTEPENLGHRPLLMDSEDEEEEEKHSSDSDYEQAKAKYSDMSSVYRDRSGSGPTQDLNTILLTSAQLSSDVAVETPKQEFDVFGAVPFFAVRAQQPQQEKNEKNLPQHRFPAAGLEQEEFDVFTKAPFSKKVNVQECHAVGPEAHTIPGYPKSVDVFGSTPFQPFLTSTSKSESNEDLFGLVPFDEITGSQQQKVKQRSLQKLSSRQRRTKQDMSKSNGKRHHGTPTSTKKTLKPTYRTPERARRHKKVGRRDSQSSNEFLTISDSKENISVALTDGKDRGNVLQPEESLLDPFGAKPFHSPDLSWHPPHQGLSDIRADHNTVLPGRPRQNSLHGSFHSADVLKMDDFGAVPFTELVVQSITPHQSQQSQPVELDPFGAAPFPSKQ
T8 sequence (Q07912 whole entry): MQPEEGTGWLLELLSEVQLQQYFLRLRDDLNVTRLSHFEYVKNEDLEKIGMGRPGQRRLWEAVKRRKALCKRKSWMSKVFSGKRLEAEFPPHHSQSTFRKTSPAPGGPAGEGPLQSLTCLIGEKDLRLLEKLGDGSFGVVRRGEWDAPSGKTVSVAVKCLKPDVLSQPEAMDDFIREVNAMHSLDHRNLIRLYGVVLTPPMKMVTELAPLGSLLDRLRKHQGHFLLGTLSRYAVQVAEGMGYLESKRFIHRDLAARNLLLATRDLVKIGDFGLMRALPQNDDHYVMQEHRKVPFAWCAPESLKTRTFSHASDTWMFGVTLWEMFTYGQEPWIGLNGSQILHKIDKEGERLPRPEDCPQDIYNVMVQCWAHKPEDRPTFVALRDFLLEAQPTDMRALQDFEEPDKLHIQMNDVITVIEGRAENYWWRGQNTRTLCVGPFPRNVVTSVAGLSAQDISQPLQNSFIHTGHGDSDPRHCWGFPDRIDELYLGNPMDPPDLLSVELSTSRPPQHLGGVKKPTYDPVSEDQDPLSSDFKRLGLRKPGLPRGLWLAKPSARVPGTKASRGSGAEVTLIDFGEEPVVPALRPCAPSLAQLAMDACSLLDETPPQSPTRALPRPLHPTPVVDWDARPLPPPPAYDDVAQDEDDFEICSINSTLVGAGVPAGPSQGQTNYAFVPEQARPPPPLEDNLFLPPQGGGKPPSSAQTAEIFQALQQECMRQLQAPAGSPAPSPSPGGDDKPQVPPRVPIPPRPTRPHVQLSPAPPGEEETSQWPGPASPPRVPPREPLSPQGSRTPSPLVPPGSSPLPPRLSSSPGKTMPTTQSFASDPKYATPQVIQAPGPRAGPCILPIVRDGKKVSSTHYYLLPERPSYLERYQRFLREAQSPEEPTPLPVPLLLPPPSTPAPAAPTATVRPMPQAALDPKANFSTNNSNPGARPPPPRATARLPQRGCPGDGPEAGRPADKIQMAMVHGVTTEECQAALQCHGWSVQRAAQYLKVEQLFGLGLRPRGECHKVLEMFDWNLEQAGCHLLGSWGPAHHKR
T9 sequence (P07947 whole entry): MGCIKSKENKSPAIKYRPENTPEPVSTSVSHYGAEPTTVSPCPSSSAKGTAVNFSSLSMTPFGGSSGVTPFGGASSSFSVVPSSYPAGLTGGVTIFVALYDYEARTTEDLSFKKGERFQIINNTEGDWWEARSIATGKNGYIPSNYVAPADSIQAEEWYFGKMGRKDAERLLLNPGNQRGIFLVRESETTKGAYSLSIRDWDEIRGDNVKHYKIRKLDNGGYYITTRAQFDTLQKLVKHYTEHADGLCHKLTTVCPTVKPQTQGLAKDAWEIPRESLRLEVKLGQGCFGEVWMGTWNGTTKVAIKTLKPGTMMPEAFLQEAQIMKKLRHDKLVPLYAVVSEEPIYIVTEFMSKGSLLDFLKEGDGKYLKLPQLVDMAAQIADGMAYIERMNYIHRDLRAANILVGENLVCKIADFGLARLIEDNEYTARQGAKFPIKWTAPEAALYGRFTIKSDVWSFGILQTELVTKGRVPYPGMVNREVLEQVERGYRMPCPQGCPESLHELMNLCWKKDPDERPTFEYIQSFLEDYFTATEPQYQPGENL

In general, inhibition refers to the share of the control response that was lost under treatment. Consider `CN1CCN(c2ccc(Nc3nccc(-c4cnn5ncccc45)n3)cc2C#N)CC1` [Compound 1], for which the inhibition at 10 µM worked out at 99.1% in assay [1] (setting [11]); 100% in assay [2] (setting [12]); 100% in assay [3] (setting [13]); 100% in [4] (setting [14]); 0% in assay [5]; 98.7% in assay [6]. In addition, the inhibition at 10 µM came to 98.9% in assay [7], 73.2% in assay [8], 92.8% in [9] and 0% in assay [10].

Turning to `COc1ccc(Nc2nccc(-c3cnn4ncccc34)n2)cc1` [Compound 2], the inhibition at 10 µM in [1] (setting [11]) came out at 96.5%; in [2] (setting [12]) it was 99.9%; in [3] (setting [13]), 100%; in assay [4] (setting [14]) it was 100%; in assay [5], 75.3%; in [6] it was 0%. In addition, the inhibition at 10 µM amounted to 93.4% in assay [7], 78.1% in [8], 0% in [9] and 0% in [10].

As to `Cc1ccc(O)cc1Nc1ccnc(Nc2cccc(C(N)=O)c2)n1` [Compound 3], the inhibition at 10 µM in [1] (setting [11]) was found to be 0%; in assay [2] (setting [12]) it was 91.5%; in assay [3] (setting [13]), 100%; in [4] (setting [14]) it was 100%; in assay [5], 87.1%; in [6] it was 0%. For the same molecule, the inhibition at 10 µM in assay [7] came out at 99.3%; in assay [8] it was 98.8%; in assay [9], 100%; in assay [10] it was 0%.

As for `Cc1ccc(O)cc1N(C)c1ccnc(Nc2cccc(S(N)(=O)=O)c2)n1` [Compound 4], the inhibition at 10 µM was 0% in assay [1] (setting [11]); 84.5% in assay [2] (setting [12]); 100% in assay [3] (setting [13]); 100% in [4] (setting [14]); 96.6% in assay [5]; 0% in assay [6]. Moreover, the inhibition at 10 µM worked out at 99.6% in assay [7], 99.8% in [8], 100% in assay [9] and 0% in [10].

On to `Fc1cccc(COc2ccc(Nc3ncnc4c3CN(CCN3CCOCC3)CC4)cc2Cl)c1` [Compound 6], for which the inhibition at 10 µM in assay [1] (setting [11]), in [2] (setting [12]), in assay [3] (setting [13]), in [4] (setting [14]), in assay [5] and in [6] was 0% each time. Besides, the inhibition at 10 µM in assay [7], in assay [8], in [9] and in assay [10] was 0% each time.

In the case of `COc1cc(Nc2nccc(-c3sc(N)nc3-c3cccc(NC(=O)c4c(F)cccc4F)c3)n2)cc(OC)c1OC` [Compound 7], the inhibition at 10 µM in assay [1] (setting [11]) was found to be 0%; in [2] (setting [12]), 0%; in assay [3] (setting [13]) it was 76.3%; in assay [4] (setting [14]), 100%; in assay [5], 100%; in assay [6], 0%. In addition, the inhibition at 10 µM in assay [7] amounted to 99.9%; in [8] it was 100%; in [9], 100%; in assay [10], 0%.

As for `C[C@@H](Oc1cc(-c2cnc3ccccn23)sc1C(N)=O)c1ccccc1Cl` [Compound 8], the inhibition at 10 µM worked out at 99.4% in assay [1] (setting [11]); 0% in assay [2] (setting [12]); 0% in [3] (setting [13]); 0% in assay [4] (setting [14]); 0% in assay [5]; 0% in [6]. The inhibition at 10 µM in [7], in [8], in assay [9] and in [10] was 0% throughout.

As to `c1ccc(COc2cccc(-c3ccnc4[nH]ccc34)c2)cc1` [Compound 9], the inhibition at 10 µM in [1] (10 μM, n = 1, read-out: percent inhibition BIKE) is at least 90%; in assay [1] (setting [11]), 94.9%; in [2] (setting [12]) it was 0%; in assay [3] (setting [13]) it was 0%; in assay [4] (setting [14]), 0%; in assay [5] it was 0%. Besides, the inhibition at 10 µM in assay [6], in [7], in [8], in assay [9] and in assay [10] was 0% in each case.

Turning to `Clc1ccc(Nc2ncc(-c3ccccc3)s2)cc1` [Compound 10], the inhibition at 10 µM in [1] (setting [11]) is 0%; in [2] (setting [12]) it was 0%; in assay [3] (setting [13]), 0%; in assay [4] (10 μM, n = 1, read-out: percent inhibition PDGFRβ), above 99%; in assay [4] (setting [14]), 99.9%; in assay [5] it was 0%. Besides, the inhibition at 10 µM in [6], in [7], in assay [8], in assay [9] and in [10] was 0% each time.

In the case of `Nc1ncc2c(-c3ccncc3)c[nH]c2n1` [Compound 11], the inhibition at 10 µM was 0% in assay [1] (setting [11]); at least 99% in [2] (10 μM, n = 1, read-out: percent inhibition CLK2); 99.9% in assay [2] (setting [12]); at least 99% in assay [3] (10 μM, n = 1, read-out: percent inhibition CSNK1D); 99.9% in [3] (setting [13]); 93.2% in [4] (setting [14]). Besides, the inhibition at 10 µM in [5] is 0%; in assay [6], 0%; in [7], 93.7%; in assay [8] it was 0%; in [9], 66.2%; in assay [10], 0%.
